A word on the IC50: it is the concentration at which inhibition is half-maximal. Low readings indicate higher potency, high ones lower potency.

Numbered stars: 1 amine (or outer) side, 2 acyl side, 3 side chain; on linkers, the order of the positions; unused ones are H or OH. Bridge positions count the residues as written; N and C are the ends. Square brackets hold non-standard residues; d marks the D form. Peptide text beside a SMILES is read from it. I, II: the chains in the order shown. * marks the point of attachment. Hexanoyl(6-succinimido-3yl) = O=C1CC([*:1])C(=O)N1CCCCCC(=O)[*:2]; Pteroyl = Nc1nc2ncc(CNc3ccc(C(=O)*)cc3)nc2c(=O)[nH]1; Dolaproine = CO[C@@H]([C@@H]1CCCN1)[C@@H](C)C(=O)O; Dil = CC[C@H](C)[C@H](NC)[C@@H](CC(=O)O)OC; PABC = O=C(OCc1ccc(N[*:1])cc1)[*:2]; X1 = C[C@@H](N*)[C@@H](O)c1ccccc1; Cit = NC(=O)NCCC[C@H](N)C(=O)O; NMeV = CN[C@H](C(=O)O)C(C)C

Holding throughout (type): cell-based
One data set deals with melanoma cell line A375. In words: Cytotoxicity test of conjugate LDC10BR. To be noted: A375, incubated 15-30 min, then 2-3 days. How it is done: (§1) Culture medium: RPMI 1640 Medium, no folic acid
(§2) 1) human nasopharyngeal cancer cell line KB, melanoma cell line A375, and human lung cancer cell H460 were incubated at 37° C., 5% CO2 in RPMI 1640 medium containing 10% fetal bovine serum, the cells were passaged every 2-3 days.
(§3) 2) human nasopharyngeal cancer cell line KB, melanoma cell line A375, and human lung cancer cell H460 were plated at 1×10^3 cells per well (96-well plate) and incubated for 8-12 h at 37° C., 5% CO2.
(§4) 3) Stock solutions of LDC conjugates or control were prepared in PBS solution. 100 μL/well of serially diluted LDC conjugates or control was added to the cells in the plate and incubated for 15-30 min at 37° C., 5% CO2. The culture medium in the wells was then removed by aspiration and the cells were incubated in fresh culture medium without conjugates (150 μL/well) for 2-3 days at 37° C., 5% CO2.
(§5) 4) CellTiter 96® Aqueous One Solution Cell Proliferation Assay (Promega) was added to each well to measure the amount of […] cells, and the plate was incubated in an incubator for 1 h at 37° C., 5% CO2.
(§6) 5) the plate was read at 490 nm on a microplate reader, and the cell survivals were compared for cells with or without the treatment of LDC conjugates. The LDC drug concentrations that are required for 50% cell death (IC50 values) were determined.

The test system of data set [1] is human lung cancer cell H460. In words: Cytotoxicity test of conjugate LDC10BR. Conditions: H460, incubated 15-30 min, then 2-3 days. Here is the method: as §1, §2, §3, §4, §5, §6
The test system of data set [2] is human nasopharyngeal cancer cell line KB. The data set can be described thus: Cytotoxicity test of conjugate LDC10BR. To be noted: incubated 15-30 min, then 2-3 days. Here is the method:
as §1, §2, §3, §4, §5, §6

For data set [3], the system named is receptor positive cell lines. The data set can be described thus: Cytotoxicity test of conjugate LDC10BR, comparison over cell lines. How it is done: as §1, §2, §3, §4, §5, §6

`CC[C@H](C)[C@@H]([C@@H](CC(=O)N1CCC[C@H]1[C@H](OC)[C@@H](C)C(=O)N[C@H](C)[C@@H](O)c1ccccc1)OC)N(C)C(=O)[C@@H](NC(=O)[C@H](C(C)C)N(C)C(=O)OCc1ccc(NC(=O)[C@H](CCCNC(N)=O)NC(=O)[C@@H](NC(=O)CCCCCN2C(=O)CC(SC[C@H](NC(=O)[C@H](CC(=O)O)NC(=O)CNC(=O)[C@H](CCCNC(=N)N)NC(=O)[C@H](CCC(=O)O)NC(=O)c3ccc(NCc4cnc5[nH]c(N)nc(=O)c5n4)cc3)C(=O)N[C@@H](CCCCN)C(=O)N[C@@H](CCC(=O)O)C(=O)N[C@@H](Cc3ccccc3)C(=O)N[C@@H](CC(C)C)C(=O)N[C@@H](Cc3c[nH]cn3)C(=O)N3CCC[C@H]3C(=O)N[C@@H](CO)C(=O)N[C@@H](CCCCN)C(=O)N[C@H](C(=O)N[C@@H](CC(=O)O)C(=O)N[C@@H](CC(C)C)C(=O)N3CCC[C@H]3C(=O)N[C@@H](CCCNC(=N)N)C(=O)O)C(C)C)C2=O)C(C)C)cc1)C(C)C` (stereo partly shown) [LDC10BR] (I: Pteroyl-ERGDCKEFLHPSKVDLPR-OH / II: V[Cit][PABC][NMeV]V[Dil][Dolaproine]-X1; linker I:5-II:N via Hexanoyl(6-succinimido-3yl)): the values for the IC50 (in the data set with melanoma cell line A375; in data set [1]; in data set [2]) were 38.1 µM, 6.4 µM and 6.6 µM, respectively. Besides, in data set [3], the “cytotoxicity compared with bi-ligand conjugate LDC10B (in words)” value was “comparable to the bi-ligand conjugate LDC10B”.

(Values after patent publication US11571480B2, “Multi-ligand drug conjugates and uses thereof” (priority 2015, dated 2023).)
